# Reference: ChEMBL document CHEMBL1201862, “PubChem BioAssay data set” (2004)
#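 The compound was tested at five concentrations on cells cultured in 96-well plates, with a 48-hour exposure period. GI50 marks 50% less growth.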 The source made the active and inactive calls. Cut-off read from the data, not from the text of the source: active = GI50 up to about 1.1 µM and inactive = higher.
# Key:
# Test in all cases: inhibition of tumour cell growth, NCI panel, 48 h
# KM12 = system: KM12
# HOP-62 = system: HOP-62
# T47D = system: T47D
# HT-29 = system: HT-29
# CAKI-1 = system: CAKI-1
# RXF 393 = system: RXF 393
# SK-MEL-2 = system: SK-MEL-2
# OVCAR-3 = system: OVCAR-3
# U-251 = system: U-251
# ACHN = system: ACHN
# CCRF-CEM = system: CCRF-CEM
# COLO 205 = system: COLO 205
# Hs-578T = system: Hs-578T
# SK-MEL-28 = system: SK-MEL-28
# SNB-75 = system: SNB-75
# SF-539 = system: SF-539
# OVCAR-8 = system: OVCAR-8
# SF-295 = system: SF-295
# HCT-116 = system: HCT-116
# MDA-MB-231 = system: MDA-MB-231
# SNB-19 = system: SNB-19
# SK-MEL-5 = system: SK-MEL-5
# SW-620 = system: SW-620
# UACC-257 = system: UACC-257
# Malme-3M = system: Malme-3M
# TK-10 = system: TK-10
# K562 = system: K562
# A549 = system: A549
# HCC 2998 = system: HCC 2998
# MDA-MB-435 = system: MDA-MB-435
# HCT-15 = system: HCT-15
# 786-0 = system: 786-0
# BT-549 = system: BT-549
# PC-3 = system: PC-3
# A498 = system: A498
# NCI-H522 = system: NCI-H522
# SR = system: SR
# MDA-N = system: MDA-N
# UO-31 = system: UO-31
# HOP-92 = system: HOP-92
# IGROV-1 = system: IGROV-1
# M14 = system: M14
# NCI/ADR-RES = system: NCI/ADR-RES
# OVCAR-4 = system: OVCAR-4
# UACC-62 = system: UACC-62
# NCI-H226 = system: NCI-H226
# HL-60 = system: HL-60
# RPMI-8226 = system: RPMI-8226
# SF-268 = system: SF-268
# MOLT-4 = system: MOLT-4
# NCI-H460 = system: NCI-H460
# EKVX = system: EKVX
# SK-OV-3 = system: SK-OV-3
# MCF7 = system: MCF7
# LOX IMVI = system: LOX IMVI
# SN12C = system: SN12C
# OVCAR-5 = system: OVCAR-5
# NCI-H23 = system: NCI-H23
# DU-145 = system: DU-145
compound,measurement,setting,value
O=C(NCCCNCCNC(=O)c1cc(-c2ccccc2)nc2ccccc12)c1cc(-c2ccccc2)nc2ccccc12,GI50,KM12,1.91 µM (inactive)
same,GI50,HOP-62,1.69 µM (inactive)
same,GI50,T47D,1.91 µM (inactive)
same,GI50,HT-29,1.52 µM (inactive)
same,GI50,CAKI-1,2.26 µM (inactive)
same,GI50,RXF 393,2 µM (inactive)
same,GI50,SK-MEL-2,2.24 µM (inactive)
same,GI50,OVCAR-3,1.97 µM (inactive)
same,GI50,U-251,1.85 µM (inactive)
same,GI50,ACHN,1.79 µM (inactive)
same,GI50,CCRF-CEM,0.783 µM (active)
same,GI50,COLO 205,1.72 µM (inactive)
same,GI50,Hs-578T,2.37 µM (inactive)
same,GI50,SK-MEL-28,1.82 µM (inactive)
same,GI50,SNB-75,1.51 µM (inactive)
same,GI50,SF-539,1.82 µM (inactive)
same,GI50,OVCAR-8,1.77 µM (inactive)
same,GI50,SF-295,1.73 µM (inactive)
same,GI50,HCT-116,1.68 µM (inactive)
same,GI50,MDA-MB-231,1.86 µM (inactive)
same,GI50,SNB-19,1.87 µM (inactive)
same,GI50,SK-MEL-5,1.64 µM (inactive)
same,GI50,SW-620,1.65 µM (inactive)
same,GI50,UACC-257,1.67 µM (inactive)
same,GI50,Malme-3M,1.88 µM (inactive)
same,GI50,TK-10,1.66 µM (inactive)
same,GI50,K562,1.94 µM (inactive)
same,GI50,A549,1.73 µM (inactive)
same,GI50,HCC 2998,1.7 µM (inactive)
same,GI50,MDA-MB-435,1.72 µM (inactive)
same,GI50,HCT-15,1.52 µM
same,GI50,786-0,1.79 µM (inactive)
same,GI50,BT-549,11.6 µM (inactive)
same,GI50,PC-3,1.68 µM (inactive)
same,GI50,A498,2.29 µM (inactive)
same,GI50,NCI-H522,1.75 µM (inactive)
same,GI50,SR,2.75 µM (inactive)
same,GI50,MDA-N,1.87 µM (inactive)
same,GI50,UO-31,1.86 µM (inactive)
same,GI50,HOP-92,2.12 µM (inactive)
same,GI50,IGROV-1,1.95 µM (inactive)
same,GI50,M14,2.24 µM (inactive)
same,GI50,NCI/ADR-RES,2.05 µM (inactive)
same,GI50,OVCAR-4,2.13 µM (inactive)
same,GI50,UACC-62,2.22 µM (inactive)
same,GI50,NCI-H226,2.32 µM (inactive)
same,GI50,HL-60,1.59 µM (inactive)
same,GI50,RPMI-8226,3.25 µM (inactive)
same,GI50,SF-268,2.1 µM (inactive)
same,GI50,MOLT-4,2.09 µM (inactive)
same,GI50,NCI-H460,1.83 µM (inactive)
same,GI50,EKVX,2.16 µM (inactive)
same,GI50,SK-OV-3,3.27 µM (inactive)
same,GI50,MCF7,1.68 µM (inactive)
same,GI50,LOX IMVI,1.58 µM (inactive)
same,GI50,SN12C,1.72 µM (inactive)
COC(=O)[C@H](COC(C)(C)C)NC(=O)N[C@H](C)c1ccccc1,GI50,KM12,> 100 µM (inactive)
same,GI50,HOP-62,> 100 µM (inactive)
same,GI50,HT-29,> 100 µM (inactive)
same,GI50,CAKI-1,> 100 µM (inactive)
same,GI50,OVCAR-5,> 100 µM (inactive)
same,GI50,SK-MEL-2,> 100 µM (inactive)
same,GI50,OVCAR-3,> 100 µM (inactive)
same,GI50,U-251,> 100 µM (inactive)
same,GI50,ACHN,> 100 µM (inactive)
same,GI50,CCRF-CEM,> 100 µM (inactive)
same,GI50,COLO 205,> 100 µM (inactive)
same,GI50,NCI-H23,> 100 µM (inactive)
same,GI50,Hs-578T,> 100 µM (inactive)
same,GI50,SK-MEL-28,> 100 µM (inactive)
same,GI50,SNB-75,> 100 µM (inactive)
same,GI50,SF-539,> 100 µM (inactive)
same,GI50,OVCAR-8,> 100 µM (inactive)
same,GI50,SF-295,> 100 µM (inactive)
same,GI50,HCT-116,> 100 µM (inactive)
same,GI50,MDA-MB-231,> 100 µM (inactive)
same,GI50,SNB-19,> 100 µM (inactive)
same,GI50,SK-MEL-5,> 100 µM (inactive)
same,GI50,DU-145,> 100 µM (inactive)
same,GI50,SW-620,> 100 µM (inactive)
same,GI50,UACC-257,> 100 µM (inactive)
same,GI50,TK-10,> 100 µM (inactive)
same,GI50,K562,> 100 µM (inactive)
same,GI50,A549,> 100 µM (inactive)
same,GI50,HCC 2998,> 100 µM (inactive)
same,GI50,MDA-MB-435,> 100 µM (inactive)
same,GI50,HCT-15,> 100 µM
same,GI50,786-0,> 100 µM (inactive)
same,GI50,BT-549,> 100 µM (inactive)
same,GI50,PC-3,> 100 µM (inactive)
same,GI50,A498,> 100 µM (inactive)
same,GI50,NCI-H522,> 100 µM (inactive)
same,GI50,SR,> 100 µM (inactive)
same,GI50,MDA-N,> 100 µM (inactive)
same,GI50,UO-31,> 100 µM (inactive)
same,GI50,HOP-92,> 100 µM (inactive)
same,GI50,IGROV-1,> 100 µM (inactive)
same,GI50,M14,> 100 µM (inactive)
same,GI50,NCI/ADR-RES,> 100 µM (inactive)
same,GI50,OVCAR-4,> 100 µM (inactive)
same,GI50,UACC-62,> 100 µM (inactive)
same,GI50,NCI-H226,> 100 µM (inactive)
same,GI50,HL-60,> 100 µM (inactive)
same,GI50,RPMI-8226,> 100 µM (inactive)
same,GI50,SF-268,> 100 µM (inactive)
same,GI50,MOLT-4,> 100 µM (inactive)
same,GI50,NCI-H460,> 100 µM (inactive)
same,GI50,EKVX,> 100 µM (inactive)
same,GI50,SK-OV-3,> 100 µM (inactive)
same,GI50,MCF7,> 100 µM (inactive)
same,GI50,LOX IMVI,> 100 µM (inactive)
same,GI50,SN12C,> 100 µM (inactive)
CC(C)(C)C1CCC2c3c([nH]c4ccccc34)C3C(=O)N(c4ccccc4[N+](=O)[O-])C(=O)C3C2C1 (stereo not given),GI50,HOP-62,4.53 µM (inactive)
same,GI50,HT-29,4.32 µM (inactive)
same,GI50,CAKI-1,5.66 µM (inactive)
same,GI50,OVCAR-5,16.9 µM (inactive)
same,GI50,RXF 393,6.65 µM (inactive)
same,GI50,SK-MEL-2,14.9 µM (inactive)
same,GI50,OVCAR-3,13 µM (inactive)
same,GI50,U-251,16 µM (inactive)
same,GI50,ACHN,9.1 µM (inactive)
same,GI50,CCRF-CEM,12.6 µM (inactive)
same,GI50,COLO 205,10.5 µM (inactive)
same,GI50,NCI-H23,8.34 µM (inactive)
same,GI50,Hs-578T,14.4 µM (inactive)
same,GI50,SF-539,21.5 µM (inactive)
same,GI50,OVCAR-8,16.6 µM (inactive)
same,GI50,SF-295,12.3 µM (inactive)
same,GI50,HCT-116,7.48 µM (inactive)
same,GI50,MDA-MB-231,10.6 µM (inactive)
same,GI50,SNB-19,19.3 µM (inactive)
same,GI50,SK-MEL-5,13.5 µM (inactive)
same,GI50,DU-145,8.39 µM (inactive)
same,GI50,SW-620,11.5 µM (inactive)
same,GI50,UACC-257,22.2 µM (inactive)
same,GI50,Malme-3M,16.4 µM (inactive)
same,GI50,TK-10,17.7 µM (inactive)
same,GI50,K562,11.9 µM (inactive)
same,GI50,A549,7 µM (inactive)
same,GI50,HCC 2998,4.14 µM (inactive)
same,GI50,MDA-MB-435,19.1 µM (inactive)
same,GI50,HCT-15,11.2 µM
same,GI50,786-0,12.7 µM (inactive)
same,GI50,BT-549,21.7 µM (inactive)
same,GI50,PC-3,7.6 µM (inactive)
same,GI50,A498,15.5 µM (inactive)
same,GI50,SR,9.64 µM (inactive)
same,GI50,MDA-N,13.2 µM (inactive)
same,GI50,UO-31,20.4 µM (inactive)
same,GI50,HOP-92,1.71 µM (inactive)
same,GI50,IGROV-1,16.7 µM (inactive)
same,GI50,M14,13.8 µM (inactive)
same,GI50,NCI/ADR-RES,12.7 µM (inactive)
same,GI50,UACC-62,12.2 µM (inactive)
same,GI50,NCI-H226,20.2 µM (inactive)
same,GI50,HL-60,11.7 µM (inactive)
same,GI50,RPMI-8226,17.5 µM (inactive)
same,GI50,SF-268,> 10 µM (inactive)
same,GI50,MOLT-4,> 10 µM (inactive)
same,GI50,NCI-H460,4.25 µM (inactive)
same,GI50,EKVX,11.4 µM (inactive)
same,GI50,SK-OV-3,37.5 µM (inactive)
same,GI50,MCF7,3.1 µM (inactive)
same,GI50,LOX IMVI,11.9 µM (inactive)
same,GI50,SN12C,14.6 µM (inactive)
